Source: the supplement of paper PMC10307832

What was measured:
Assay in all cases: relative viability (nuclei count vs DMSO), 5 days (fraction); higher = more cells survive
VX-11e + Palbociclib = compound: CC1=CN=C(N=C1C2=CNC(=C2)C(=O)N[C@H](CO)C3=CC(=CC=C3)Cl)NC4=C(C=C(C=C4)F)Cl [VX-11e] + CC(=O)c1c(C)c2cnc(Nc3ccc(N4CCNCC4)cn3)nc2n(C2CCCC2)c1=O [Palbociclib] (partner 0.5 µM)
Method in brief: (§1)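 Relative viability equals treated-well nuclei counts divided by vehicle-well nuclei counts. Counts came from 4× images of lung cancer cell lines grown in 1536-well plates for 5 days after pin-tool dosing on the day after seeding. Dosing used one drug alone or a fixed anchor-drug dose plus five library-drug doses (not always all listed) in √10 steps, and values are medians of duplicate plates.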

VX-11e + Foretinib = compound: CC1=CN=C(N=C1C2=CNC(=C2)C(=O)N[C@H](CO)C3=CC(=CC=C3)Cl)NC4=C(C=C(C=C4)F)Cl [VX-11e] + COc1cc2c(Oc3ccc(NC(=O)C4(C(=O)Nc5ccc(F)cc5)CC4)cc3F)ccnc2cc1OCCCN1CCOCC1 [Foretinib] (partner 0.25 µM)
Method in brief: as §1

VX-11e + OSI-027 = compound: CC1=CN=C(N=C1C2=CNC(=C2)C(=O)N[C@H](CO)C3=CC(=CC=C3)Cl)NC4=C(C=C(C=C4)F)Cl [VX-11e] + COc1cccc2cc(-c3nc([C@H]4CC[C@H](C(=O)O)CC4)n4ncnc(N)c34)[nH]c12 [OSI-027] (partner 0.5 µM)
Method in brief: as §1

VX-11e = compound: CC1=CN=C(N=C1C2=CNC(=C2)C(=O)N[C@H](CO)C3=CC(=CC=C3)Cl)NC4=C(C=C(C=C4)F)Cl [VX-11e]
Method in brief: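 On vehicle-anchored 1536-well plates, lung cancer cell lines held overnight at 37 °C were pinned with five library-drug doses (not always all listed) spaced by √10. With no medium change over 5 days, they were then fixed, permeabilised and Hoechst-stained in one step and imaged at 4×. MetaXpress counted nuclei, and viability is the median across plates of treated-well over vehicle-well nuclei. Acceptance needed control CV below 25% and at least one doubling.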

Row | Cell Line | relative viability (VX-11e + Palbociclib; first compound 0.04 µM) | relative viability (VX-11e + Palbociclib; first compound 0.1265 µM) | relative viability (VX-11e + Palbociclib; first compound 0.4 µM) | relative viability (VX-11e + Palbociclib; first compound 1.265 µM) | relative viability (VX-11e + Palbociclib; first compound 4 µM) | relative viability (VX-11e + Foretinib; first compound 0.04 µM) | relative viability (VX-11e + Foretinib; first compound 0.1265 µM) | relative viability (VX-11e + Foretinib; first compound 1.265 µM) | relative viability (VX-11e + Foretinib; first compound 4 µM) | relative viability (VX-11e + OSI-027; first compound 0.04 µM) | relative viability (VX-11e + OSI-027; first compound 0.1265 µM) | relative viability (VX-11e + OSI-027; first compound 0.4 µM) | relative viability (VX-11e + OSI-027; first compound 1.265 µM) | relative viability (VX-11e + OSI-027; first compound 4 µM) | relative viability (VX-11e; 0.04 µM) | relative viability (VX-11e; 0.1265 µM) | relative viability (VX-11e; 0.4 µM) | relative viability (VX-11e; 1.265 µM) | relative viability (VX-11e; 4 µM) | relative viability (VX-11e + Foretinib; first compound 0.4 µM)
1 | NCI-H2023 | 0.336 | 0.338 | 0.251 | 0.203 | 0.111 | 0.811 | 0.771 | 0.513 | 0.42 | 0.332 | 0.349 | 0.139 | 0.183 | 0.114 | 0.941 | 0.957 | 0.557 | 0.569 | 0.445 | –
2 | NCI-H2085 | 0.498 | 0.437 | 0.457 | 0.404 | 0.366 | 0.973 | 0.951 | 0.835 | 0.679 | 0.625 | 0.695 | 0.517 | 0.322 | 0.251 | 1.04 | 0.949 | 0.923 | 0.84 | 0.696 | 0.725
3 | NCI-H2087 | 0.203 | 0.244 | – | 0.176 | 0.176 | 1.14 | 1.06 | 0.81 | 0.454 | 0.357 | 0.448 | – | 0.319 | 0.145 | 1.05 | 0.989 | – | 0.566 | 0.293 | –
4 | NCI-H2126 | 0.331 | 0.379 | 0.359 | 0.353 | 0.318 | 1.21 | 1.22 | 1.1 | 0.903 | 0.533 | 0.816 | 0.315 | 0.448 | 0.541 | 0.682 | 0.935 | 0.701 | 0.894 | 0.808 | 1.01
5 | NCI-H2170 | 0.354 | 0.386 | 0.381 | 0.339 | 0.424 | 0.995 | 1.13 | 0.953 | 0.812 | 0.589 | 0.624 | 0.155 | 0.649 | 0.453 | 0.862 | 0.938 | 0.871 | 0.913 | 0.949 | 0.906
6 | NCI-H2228 | 0.832 | 0.731 | 0.165 | 0.528 | 0.199 | 0.79 | 0.936 | 0.482 | 0.275 | 0.617 | 0.54 | – | 0.216 | 0.123 | 1.13 | 0.954 | 0.407 | 0.776 | 0.428 | –
7 | NCI-H2342 | – | 0.542 | 0.521 | 0.568 | 0.515 | 1.15 | 1.1 | 1.07 | 0.893 | 0.505 | 0.592 | 0.637 | 0.539 | 0.56 | 0.666 | 1.03 | 0.923 | 0.992 | 0.9 | 0.98
8 | NCI-H2347 | 0.475 | 0.405 | 0.481 | 0.398 | 0.379 | 0.761 | 0.877 | 0.67 | 0.652 | 0.418 | 0.467 | 0.337 | 0.255 | 0.21 | 1.01 | 1.05 | 0.853 | 0.752 | 0.469 | 0.46
